One experiment concerns the target EGFR WT (Homo sapiens, UniProt P00533). Briefly: HTRF-based EGFR biochemical assay, WT. Conditions: 100 μM ATP, enzyme 5 nM.
Another experiment concerns the target EGFR L858R (Homo sapiens, UniProt P00533, L858R). Briefly: HTRF-based EGFR biochemical assay, L858R. The following applies: 100 μM ATP, enzyme 0.1 nM. As to the method:
(§1) EGFR biochemical activity measurements were carried out using the homogeneous time-resolved fluorescence (HTRF) assay (Cisbio). Inhibitors and DMSO normalizations were first dispensed to empty black low-volume 384-well plates (Corning) with D300 digital liquid dispenser (HP). All reactions were carried out at room temperature and solutions were added to plates with a Multidrop Combi Reagent Dispenser (ThermoFisher). The reaction mixture (10 μL final volume) contained 1 μM tyrosine kinase peptide-biotin substrate and mutant EGFR in a reaction buffer (50 mM HEPES pH 7.0, 5 mM MgCl2, 1 mM MnCl2, 0.01% BSA, 2 mM TCEP, 0.1 mM NaVO4). […] Enzyme reaction solution (2× concentrations, 5 μL) was added to 384-well plates containing compounds and incubated for 30 mins. Enzyme reactions were initiated with the addition of 5 μL of ATP to a final concentration of 100 μM and reacted for 20 mins.
In general terms: In TR-FRET formats the signal depends on donor and acceptor labels being close together.

A further experiment addresses EGFR L858R/T790M (Homo sapiens, UniProt P00533, L858R/T790M). Briefly: HTRF-based EGFR biochemical assay, L858R/T790M. Conditions: 100 μM ATP, enzyme 0.02 nM. As to the method: as §1
Another experiment concerns the target EGFR L858R/T790M/C797S (Homo sapiens, UniProt P00533, C797S/L858R/T790M). Briefly: HTRF-based EGFR biochemical assay, L858R/T790M/C797S. The following applies: 100 μM ATP, enzyme 0.02 nM. As to the method:
as §1

The target of a further experiment is WT EGFR Ba/F3 cells (Homo sapiens, UniProt P00533, cells depend on it, form not given). Nature of the experiment: Ba/F3 cell proliferation (Cell Titer Glo), WT. Format: cell-based, murine. Conditions: Ba/F3, 72 hours, value in parentheses, meaning not explained, read-out: WT, inhibition of growth (value in parentheses). How it is done:
(§2) 100 units/mL streptomycin. The EGFR I941R mutation was introduced via site directed mutagenesis using the Quick Change Site-Directed Mutagenesis kit (Stratagene; La Jolla, CA) according to the manufacturer's instructions. All constructs were confirmed by DNA sequencing. The constructs were shuttled into the retroviral vector JP1540 using the Cre-recombination system (Agilent Technologies, Santa Clara, CA). […] Stable clones were obtained by selection in puromycin (2 μg/ml).
(§3) Growth and inhibition of growth was assessed by the Cell Titer Glo assay (Promega, Madison, WI) and was performed according to the manufacturer's instructions. The Cell Titer Glo assay is a luminescence-based method used to determine the number of viable cells based on quantitation of the ATP present, which is directly proportional to the amount of metabolically active cells present. […] All experimental points were set up in triplicates in 384-well plates and all experiments were repeated at least three times. […] The curves were fitted using a non-linear regression model with a sigmoidal dose response.

Another experiment has as its target EGFR L858R Ba/F3 cells (Homo sapiens, UniProt P00533, L858R, cells depend on it). Briefly: Ba/F3 cell proliferation (Cell Titer Glo), L858R. In kind it is cell-based, murine. The following applies: Ba/F3, 72 hours, value in parentheses, meaning not explained, read-out: L858R, inhibition of growth (value in parentheses). As to the method: as §2, §3
A general note: ATP-based viability assays read luminescence as a measure of living cells.

Experiment [1] addresses EGFR L858R/T790M Ba/F3 cells (Homo sapiens, UniProt P00533, T790M/L858R, cells depend on it). Nature of the experiment: Ba/F3 cell proliferation (Cell Titer Glo), L858R/T790M. Conditions: Ba/F3, 72 hours, value in parentheses, meaning not explained, read-out: L858R/T790M, inhibition of growth (value in parentheses). In kind it is cell-based, murine. How it is done: as §2, §3

The target in experiment [2] is EGFR L858R/T790M/C797S Ba/F3 cells (Homo sapiens, UniProt P00533, T790M/C797S/L858R, cells depend on it). Nature of the experiment: Ba/F3 cell proliferation (Cell Titer Glo), L858R/T790M/C797S. In kind it is cell-based, murine. Conditions: Ba/F3, 72 hours, value in parentheses, meaning not explained, read-out: L858R/T790M/C797S, inhibition of growth (value in parentheses). How it is done:
as §2, §3

What is called IC50 is the concentration needed to halve the response being measured. A lower IC50 goes with higher potency.

Sequence of EGFR L858R/T790M/C797S Ba/F3 cells (P00533 whole entry T790M/C797S/L858R): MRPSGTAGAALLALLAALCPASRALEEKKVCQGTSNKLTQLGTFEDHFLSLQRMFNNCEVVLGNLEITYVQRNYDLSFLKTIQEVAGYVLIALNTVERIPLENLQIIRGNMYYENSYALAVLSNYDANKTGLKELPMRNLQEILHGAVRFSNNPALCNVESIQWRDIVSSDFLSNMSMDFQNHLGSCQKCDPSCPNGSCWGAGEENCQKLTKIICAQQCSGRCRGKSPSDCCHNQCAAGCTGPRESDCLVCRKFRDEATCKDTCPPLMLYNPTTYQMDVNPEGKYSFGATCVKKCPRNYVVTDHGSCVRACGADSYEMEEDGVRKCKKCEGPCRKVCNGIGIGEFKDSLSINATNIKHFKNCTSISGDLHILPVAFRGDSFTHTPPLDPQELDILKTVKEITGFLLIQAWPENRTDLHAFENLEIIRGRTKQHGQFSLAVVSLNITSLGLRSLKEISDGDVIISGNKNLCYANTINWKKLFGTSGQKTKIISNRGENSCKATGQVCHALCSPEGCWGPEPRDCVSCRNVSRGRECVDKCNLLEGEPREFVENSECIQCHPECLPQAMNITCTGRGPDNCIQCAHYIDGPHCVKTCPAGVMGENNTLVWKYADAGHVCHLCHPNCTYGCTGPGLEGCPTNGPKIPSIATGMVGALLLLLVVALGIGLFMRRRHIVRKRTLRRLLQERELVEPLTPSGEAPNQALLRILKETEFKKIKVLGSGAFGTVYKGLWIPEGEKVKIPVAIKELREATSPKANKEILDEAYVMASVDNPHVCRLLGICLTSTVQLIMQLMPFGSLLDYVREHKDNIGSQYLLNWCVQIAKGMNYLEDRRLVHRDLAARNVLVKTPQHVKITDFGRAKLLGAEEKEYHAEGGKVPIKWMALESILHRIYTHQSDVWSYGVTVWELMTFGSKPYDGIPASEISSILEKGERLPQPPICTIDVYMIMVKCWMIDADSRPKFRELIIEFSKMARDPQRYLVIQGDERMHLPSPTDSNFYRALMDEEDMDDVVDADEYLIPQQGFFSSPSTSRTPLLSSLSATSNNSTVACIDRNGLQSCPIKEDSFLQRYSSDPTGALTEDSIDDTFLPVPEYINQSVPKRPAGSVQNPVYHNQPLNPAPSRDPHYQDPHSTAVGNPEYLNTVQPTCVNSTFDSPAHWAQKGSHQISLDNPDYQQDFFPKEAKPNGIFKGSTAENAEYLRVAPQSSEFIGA
Sequence of WT EGFR Ba/F3 cells (P00533 whole entry, stated change not applied): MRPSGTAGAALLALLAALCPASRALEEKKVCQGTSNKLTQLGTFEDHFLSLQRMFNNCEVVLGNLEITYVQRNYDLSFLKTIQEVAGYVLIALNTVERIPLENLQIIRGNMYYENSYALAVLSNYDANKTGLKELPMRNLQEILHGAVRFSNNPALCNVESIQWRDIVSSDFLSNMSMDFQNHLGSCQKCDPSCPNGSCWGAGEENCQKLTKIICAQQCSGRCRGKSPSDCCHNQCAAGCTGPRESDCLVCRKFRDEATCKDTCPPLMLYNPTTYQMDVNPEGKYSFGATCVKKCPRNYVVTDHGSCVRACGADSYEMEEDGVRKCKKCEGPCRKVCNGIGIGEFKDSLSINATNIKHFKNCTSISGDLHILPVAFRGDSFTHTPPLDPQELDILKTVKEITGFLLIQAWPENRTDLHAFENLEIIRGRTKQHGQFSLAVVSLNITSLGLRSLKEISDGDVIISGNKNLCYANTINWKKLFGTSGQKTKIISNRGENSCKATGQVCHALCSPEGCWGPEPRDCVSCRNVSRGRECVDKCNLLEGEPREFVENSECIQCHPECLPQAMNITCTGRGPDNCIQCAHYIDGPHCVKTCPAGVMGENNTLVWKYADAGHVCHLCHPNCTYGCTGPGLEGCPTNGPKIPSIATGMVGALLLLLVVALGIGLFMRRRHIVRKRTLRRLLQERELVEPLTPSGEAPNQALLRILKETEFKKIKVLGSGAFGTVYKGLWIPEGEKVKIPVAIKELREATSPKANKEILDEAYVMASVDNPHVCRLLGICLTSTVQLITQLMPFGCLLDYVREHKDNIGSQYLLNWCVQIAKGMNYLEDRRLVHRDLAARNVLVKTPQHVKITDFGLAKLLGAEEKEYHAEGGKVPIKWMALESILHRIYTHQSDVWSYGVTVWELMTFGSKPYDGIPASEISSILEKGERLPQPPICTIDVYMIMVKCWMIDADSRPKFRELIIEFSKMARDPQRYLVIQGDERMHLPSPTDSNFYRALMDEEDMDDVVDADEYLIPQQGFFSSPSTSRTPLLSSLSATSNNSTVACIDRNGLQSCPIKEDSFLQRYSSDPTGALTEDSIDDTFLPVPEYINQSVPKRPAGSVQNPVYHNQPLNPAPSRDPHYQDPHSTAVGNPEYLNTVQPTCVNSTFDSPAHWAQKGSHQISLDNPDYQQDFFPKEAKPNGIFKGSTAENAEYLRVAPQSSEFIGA
Sequence of EGFR L858R Ba/F3 cells (P00533 whole entry L858R): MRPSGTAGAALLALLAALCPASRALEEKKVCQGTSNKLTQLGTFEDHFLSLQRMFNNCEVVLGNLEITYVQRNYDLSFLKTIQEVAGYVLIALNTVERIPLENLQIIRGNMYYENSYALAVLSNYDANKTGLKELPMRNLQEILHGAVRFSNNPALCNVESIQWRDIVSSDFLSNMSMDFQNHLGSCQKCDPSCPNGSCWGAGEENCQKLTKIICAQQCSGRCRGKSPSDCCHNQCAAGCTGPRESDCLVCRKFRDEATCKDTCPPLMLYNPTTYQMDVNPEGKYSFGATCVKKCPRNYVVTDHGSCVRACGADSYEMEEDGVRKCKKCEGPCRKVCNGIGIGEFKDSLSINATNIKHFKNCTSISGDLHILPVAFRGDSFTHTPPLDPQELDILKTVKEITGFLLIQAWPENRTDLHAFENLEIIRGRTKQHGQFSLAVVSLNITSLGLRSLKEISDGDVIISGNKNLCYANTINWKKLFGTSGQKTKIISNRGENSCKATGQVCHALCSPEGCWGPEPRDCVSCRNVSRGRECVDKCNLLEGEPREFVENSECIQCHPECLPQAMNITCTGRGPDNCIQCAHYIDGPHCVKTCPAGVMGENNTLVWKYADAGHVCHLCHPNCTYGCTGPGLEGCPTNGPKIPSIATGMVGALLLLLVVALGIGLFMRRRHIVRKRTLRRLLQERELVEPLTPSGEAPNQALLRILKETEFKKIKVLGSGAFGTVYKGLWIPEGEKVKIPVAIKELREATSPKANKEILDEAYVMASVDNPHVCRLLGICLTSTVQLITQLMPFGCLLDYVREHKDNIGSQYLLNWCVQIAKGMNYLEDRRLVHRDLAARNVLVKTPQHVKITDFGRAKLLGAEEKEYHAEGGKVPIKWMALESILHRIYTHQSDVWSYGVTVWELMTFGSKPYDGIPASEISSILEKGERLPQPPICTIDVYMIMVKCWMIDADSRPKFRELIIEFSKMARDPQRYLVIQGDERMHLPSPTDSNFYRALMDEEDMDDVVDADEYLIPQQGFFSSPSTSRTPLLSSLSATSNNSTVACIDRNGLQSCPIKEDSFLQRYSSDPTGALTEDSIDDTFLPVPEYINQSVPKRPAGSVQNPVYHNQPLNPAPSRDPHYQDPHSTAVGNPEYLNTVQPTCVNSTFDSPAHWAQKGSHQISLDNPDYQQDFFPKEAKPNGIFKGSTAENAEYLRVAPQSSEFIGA
Sequence of EGFR L858R/T790M/C797S (P00533 25-1210 T790M/C797S/L858R): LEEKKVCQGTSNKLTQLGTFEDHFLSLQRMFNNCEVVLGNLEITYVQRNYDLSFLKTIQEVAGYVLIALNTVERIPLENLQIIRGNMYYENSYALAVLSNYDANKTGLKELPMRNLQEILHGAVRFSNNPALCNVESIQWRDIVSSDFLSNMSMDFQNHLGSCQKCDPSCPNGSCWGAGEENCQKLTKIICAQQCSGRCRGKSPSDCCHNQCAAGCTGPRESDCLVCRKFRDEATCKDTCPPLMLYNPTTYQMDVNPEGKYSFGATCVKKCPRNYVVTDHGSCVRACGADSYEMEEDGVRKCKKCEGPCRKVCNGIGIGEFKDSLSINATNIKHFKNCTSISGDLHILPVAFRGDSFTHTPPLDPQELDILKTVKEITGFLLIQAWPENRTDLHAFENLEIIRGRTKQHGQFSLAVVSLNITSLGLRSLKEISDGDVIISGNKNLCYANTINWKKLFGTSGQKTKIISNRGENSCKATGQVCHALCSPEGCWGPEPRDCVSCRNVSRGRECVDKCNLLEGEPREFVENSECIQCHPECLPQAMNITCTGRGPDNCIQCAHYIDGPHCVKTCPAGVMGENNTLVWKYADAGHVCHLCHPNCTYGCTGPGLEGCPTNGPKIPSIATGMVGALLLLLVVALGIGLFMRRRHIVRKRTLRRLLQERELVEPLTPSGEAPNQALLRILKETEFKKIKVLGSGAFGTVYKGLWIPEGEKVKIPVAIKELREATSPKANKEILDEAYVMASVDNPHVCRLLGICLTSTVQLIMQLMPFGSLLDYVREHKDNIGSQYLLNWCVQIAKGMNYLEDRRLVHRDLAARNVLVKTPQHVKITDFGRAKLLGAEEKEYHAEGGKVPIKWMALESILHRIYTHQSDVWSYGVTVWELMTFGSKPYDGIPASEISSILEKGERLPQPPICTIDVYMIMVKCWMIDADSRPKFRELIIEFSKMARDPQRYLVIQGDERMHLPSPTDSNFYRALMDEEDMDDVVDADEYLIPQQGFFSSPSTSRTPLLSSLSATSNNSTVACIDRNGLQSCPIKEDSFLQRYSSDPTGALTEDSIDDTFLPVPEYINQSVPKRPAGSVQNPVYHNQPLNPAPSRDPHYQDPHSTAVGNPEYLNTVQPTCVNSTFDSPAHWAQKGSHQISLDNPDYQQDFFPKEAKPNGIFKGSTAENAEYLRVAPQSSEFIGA

As for `CSc1nc(-c2cccc(NC(=O)c3c(F)cccc3F)c2)c(-c2ccnc(Nc3ccccc3)c2)[nH]1` [Compound 010, 2,6-difluoro-N-(3-(2-(methylthio)-5-(2-(phenylamino)pyridin-4-yl)-1H-imidazol-4-yl)phenyl)benzamide], the values for the half-inhibitory concentration (IC50) against EGFR WT, on EGFR L858R and against EGFR L858R/T790M were 0.015 µM, 0.032 µM and 2.38 µM, respectively.
In the case of `CSc1nc(-c2cccc(NC(=O)c3ccccc3CN3Cc4ccccc4C3=O)c2)c(-c2ccnc(NC(C)=O)c2)[nH]1` [Compound 047, N-(3-(5-(2-acetamidopyridin-4-yl)-2-(methylthio)-1H-imidazol-4-yl)phenyl)-2-((1-oxoisoindolin-2-yl)methyl)benzamide], the IC50 at EGFR WT is > 100 µM; against EGFR L858R it was 0.096 µM; against EGFR L858R/T790M it was 0.759 µM; at EGFR L858R/T790M/C797S, 0.61 µM. Besides, the EC50 at WT EGFR Ba/F3 cells is > 4.3 µM; on EGFR L858R Ba/F3 cells, > 10 µM; in experiment [1] it was > 10 µM; in experiment [2], > 10 µM.
Regarding `CSc1nc(-c2cccc3c2CCC3NC(=O)c2cccc3[nH]ccc23)c(-c2ccnc(NC(C)=O)c2)[nH]1` (stereo not shown) [Compound 056, N-(4(5-(2-acetamidopyridin-4-yl)-2-(methylthio)-1H-imidazol-4-yl)-2,3-dihydro-1H-inden-1-yl)-1H-indole-4-carboxamide], the IC50 against EGFR L858R and on EGFR L858R/T790M was > 100 µM each time.
With `CSc1nc(-c2cccc3c2CCC3NC(=O)c2cc(F)cc(F)c2)c(-c2ccnc(NC(C)=O)c2)[nH]1` (stereo not shown) [Compound 057, N-(4-(5-(2-acetamidopyridin-4-yl)-2-(methylthio)-1H-imidazol-4-yl)-2,3-dihydro-1H-inden-1-yl)-3,5-difluorobenzamide], the IC50 on EGFR L858R and against EGFR L858R/T790M was > 100 µM throughout.
As for `CSc1nc(-c2cccc(NC(=O)c3c(F)ccc(O)c3CN3Cc4ccccc4C3=O)c2)c[nH]1` [Compound 058, 6-fluoro-3-hydroxy-N-(3-(2-(methylthio)-1H-imidazol-4-yl)phenyl)-2-((1-oxoisoindolin-2-yl)methyl)benzamide], the IC50 against EGFR WT, on EGFR L858R, against EGFR L858R/T790M and at EGFR L858R/T790M/C797S was > 100 µM throughout.
On to `CSc1nc(-c2ccnc(NC(C)=O)c2)c(-c2cccc(NC(=O)c3c(F)ccc(O)c3CN3Cc4ccccc4C3=O)c2)n1C` [Compound 059, N-(3-(4-(2-acetamidopyridin-4-yl)-1-methyl-2-(methylthio)-1H-imidazol-5-yl)phenyl)-6-fluoro-3-hydroxy-2-((1-oxoisoindolin-2-yl)methyl)benzamide], for which the IC50 against EGFR WT is > 100 µM; against EGFR L858R, 3.07 µM; against EGFR L858R/T790M it was > 100 µM; against EGFR L858R/T790M/C797S it was > 100 µM.
Consider `CSc1nc(-c2cccc(NC(=O)c3cc(O)ccc3F)c2)c[nH]1` [Compound 060], for which the IC50 against EGFR WT, against EGFR L858R/T790M and on EGFR L858R/T790M/C797S was > 100 µM throughout.
As for `C=CC(=O)Nc1ccc(OC)c(Nc2cc(-c3[nH]c(SC)nc3-c3cccc(NC(=O)c4ccccc4CN4Cc5ccccc5C4=O)c3)ccn2)c1` [Compound 064, N-(3-(5-(2-((5-acrylamido-2-methoxyphenyl)amino)pyridin-4-yl)-2-(methylthio)-1H-imidazol-4-yl)phenyl)-2-((1-oxoisoindolin-2-yl)methyl)benzamide], the IC50 stood at 0.701 µM against EGFR WT, 0.011 µM against EGFR L858R, 0.008 µM on EGFR L858R/T790M and 0.206 µM on EGFR L858R/T790M/C797S. The EC50 at WT EGFR Ba/F3 cells was > 4 µM; on EGFR L858R Ba/F3 cells it was 0.5 µM; in experiment [1], 2.5 µM; in experiment [2], > 10 µM.
On to `CSc1nc(-c2cccc(NC(=O)c3ccccc3CN3C(=O)c4ccccc4C3=O)c2)c(-c2ccnc(Nc3ccccc3)c2)[nH]1` [Compound 067, 2-((1,3-dioxoisoindolin-2-yl)methyl)-N-(3-(2-(methylthio)-5-(2-(phenylamino)pyridin-4-yl)-1H-imidazol-4-yl)phenyl)benzamide], for which the EC50 at WT EGFR Ba/F3 cells is > 3.3 µM; on EGFR L858R Ba/F3 cells it was > 8.7 µM; in experiment [1], > 10 µM; in experiment [2] it was > 10 µM.
`CSc1nc(-c2cccc(NC(=O)c3c(F)ccc(O)c3CN3C(=O)c4ccccc4C3=O)c2)c(-c2ccnc(Nc3ccccc3)c2)[nH]1` [Compound 068, 2-((1,3-dioxoisoindolin-2-yl)methyl)-6-fluoro-3-hydroxy-N-(3-(2-(methylthio)-5-(2-(phenylamino)pyridin-4-yl)-1H-imidazol-4-yl)phenyl)benzamide]: the EC50 is > 5.6 µM at WT EGFR Ba/F3 cells, > 10 µM at EGFR L858R Ba/F3 cells, > 10 µM in experiment [1] and > 10 µM in experiment [2].
`CSc1nc(-c2cccc(NC(=O)c3ccccc3CN3Cc4ccccc4C3=O)c2)c(-c2ccnc(Nc3ccccc3)c2)[nH]1` [Compound 069, N-(3-(2-(methylthio)-5-(2-(phenylamino)pyridin-4-yl)-1H-imidazol-4-yl)phenyl)-2-((1-oxoisoindolin-2-yl)methyl)benzamide]: the EC50 on WT EGFR Ba/F3 cells is > 2.1 µM; at EGFR L858R Ba/F3 cells it was > 5.3 µM; in experiment [1], > 5.6 µM; in experiment [2], > 10 µM.

For the origin of these results see patent publication US20230406838A1, “MUTANT SELECTIVE EGFR INHIBITORS AND METHODS OF USE THEREOF” (Dana-Farber Cancer Institute, Inc., priority 2020, published 2023).
